Activity calls are given as the source filed them. No cut-off for these calls is given here.
Assays:
[1] = Toxicity in Kunming mouse assessed as histopathological abnormalities in kidney at 4 to 8 mg/kg, sc measured after 24 hrs by H and E staining based analysis; format: organism-based; details: in vivo, dose 4-8 mg/kg
[2] = test system: Cell membrane; test: Induction of cell membrane permeability in methicillin-resistant Staphylococcus aureus clinical isolate MRSA-16 assessed as increase in damaged cells (Q2 region) at 64 ug/ml incubated for 2 hrs by SYTO 9 and PI staining based flow cytometry analysis (reference value: 0.91%); format: cell membranes; details: dose 64.0 µg/ml
[3] = test system: Cell membrane; test: Disruption of cell membrane in methicillin-resistant Staphylococcus aureus clinical isolate MRSA-16 assessed as fold increase in intracellular ROS production at 64 ug/ml measured after 40 mins by DCFH-DA dye based fluorescence assay; format: cell membranes; details: dose 64.0 µg/ml
[4] = test system: Staphylococcus aureus; test: Antibacterial activity against methicillin-resistant Staphylococcus aureus infected in Kunming mouse skin infection model assessed as decrease in bacterial load at 8 mg/kg,sc measured after 24 hrs relative to control; format: functional; design: scale not given: the % may be the effect or the level left
[5] = Hemolytic activity in sheep erythrocytes incubated for 1 hr by absorbance based analysis; format: toxicity, cell-based, Ovis aries, Erythrocyte
[6] = test system: Staphylococcus aureus; test: Antibacterial activity against methicillin-resistant Staphylococcus aureus infected in Kunming mouse skin infection model assessed as effect on skin abscesses in dorsal surface at 4 mg/kg,sc measured after 24 hrs; format: functional, organism-based
[7] = Toxicity in Kunming mouse assessed as effect on spleen at 4 to 8 mg/kg, sc measured after 24 hrs by H and E staining based analysis; format: organism-based; details: in vivo, dose 4-8 mg/kg
[8] = test system: Cell membrane; test: Induction of cell membrane permeability in methicillin-resistant Staphylococcus aureus clinical isolate MRSA-16 assessed as increase in damaged cells (Q2 region) at 32 ug/ml incubated for 2 hrs by SYTO 9 and PI staining based flow cytometry analysis (reference value: 0.91%); format: cell membranes; details: dose 32.0 µg/ml
[9] = test system: Escherichia coli; test: Antibacterial activity against Escherichia coli ATCC25922 measured after 16 to 18 hrs by CLSI method; format: functional; details: time 16-18 hrs
[10] = test system: Staphylococcus aureus; test: Antibacterial activity against methicillin-resistant Staphylococcus aureus in presence of phosphatidylethanolamine; format: functional, organism-based
[11] = test system: Staphylococcus aureus; test: Antibacterial activity against methicillin-resistant Staphylococcus aureus clinical isolate MRSA-18 measured after 16 to 18 hrs by CLSI method; format: functional; details: time 16-18 hrs
[12] = test system: Cell membrane; test: Induction of cell membrane permeability in methicillin-resistant Staphylococcus aureus clinical isolate MRSA-16 assessed as decrease in intact cells (Q3 region) at 4 ug/ml incubated for 2 hrs by SYTO 9 and PI staining based flow cytometry analysis (reference value: 99.07%); format: cell membranes; design: scale not given: the % may be the effect or the level left; details: dose 4.0 µg/ml
[13] = test system: Staphylococcus aureus; test: Antibacterial activity against methicillin-resistant Staphylococcus aureus infected in Kunming mouse skin infection model assessed as appearance of small number of infiltrated inflammatory cells in skin dermis at 8 mg/kg,sc measured after 24 hrs; format: functional, organism-based
[14] = test system: Staphylococcus aureus; test: Antibacterial activity against methicillin-resistant Staphylococcus aureus in presence of cardiolipin; format: functional, organism-based
[15] = test system: Cell membrane; test: Induction of cell membrane permeability in methicillin-resistant Staphylococcus aureus clinical isolate MRSA-16 assessed as decrease in intact cells (Q3 region) at 64 ug/ml incubated for 2 hrs by SYTO 9 and PI staining based flow cytometry analysis (reference value: 99.07%); format: cell membranes; design: scale not given: the % may be the effect or the level left; details: dose 64.0 µg/ml
[16] = test system: Staphylococcus aureus; test: Antibacterial activity against methicillin-resistant Staphylococcus aureus infected in Kunming mouse skin infection model assessed as reduction in number of bacterial cells at 4 to 8 mg/kg,sc measured after 24 hrs; format: functional, organism-based; details: dose 4-8 mg/kg
[17] = test system: Cell membrane; test: Induction of cell membrane permeability in methicillin-resistant Staphylococcus aureus clinical isolate MRSA-16 assessed as decrease in intact cells (Q3 region) at 32 ug/ml incubated for 2 hrs by SYTO 9 and PI staining based flow cytometry analysis (reference value: 99.07%); format: cell membranes; design: scale not given: the % may be the effect or the level left; details: dose 32.0 µg/ml
[18] = test system: Cell membrane; test: Induction of cytoplasmic membrane depolarization in methicillin-resistant Staphylococcus aureus clinical isolate MRSA-16 assessed as increase in fluorescence intensity at 8 to 32 ug/ml measured every 2 mins for 20 mins by SYTOX green staining based analysis; format: cell membranes; details: dose 8-32 µg/ml
[19] = Toxicity in Kunming mouse assessed as animal death at 20 mg/kg, sc measured after 24 hrs; format: organism-based; details: in vivo
[20] = test system: Cell membrane; test: Induction of cell membrane permeability in methicillin-resistant Staphylococcus aureus clinical isolate MRSA-16 assessed as dead cells (Q1 region) at 4 ug/ml incubated for 2 hrs by SYTO 9 and PI staining based flow cytometry analysis (reference value: 0.00%); format: cell membranes; details: dose 4.0 µg/ml
[21] = Toxicity in Kunming mouse assessed as effect on skin at 10 mg/kg, sc measured after 24 hrs by H and E staining based analysis; format: organism-based; details: in vivo
[22] = test system: Staphylococcus aureus; test: Induction of morphological changes in methicillin-resistant Staphylococcus aureus clinical isolate MRSA-16 assessed as appearance of uneven cell surface at 16 ug/ml incubated for 4 hrs by SEM analysis; format: functional, organism-based; details: dose 16.0 µg/ml
[23] = Toxicity in Kunming mouse assessed as histopathological abnormalities in kidney at 10 mg/kg, sc measured after 24 hrs by H and E staining based analysis; format: organism-based; details: in vivo
[24] = test system: Staphylococcus aureus; test: Bactericidal activity against Staphylococcus aureus ATCC 29213 assessed as bacterial killing at 4 times MIC measured within 4 to 8 hrs by time kill assay relative to control; format: functional; details: time 4-8 hrs
[25] = Toxicity in Kunming mouse assessed as swelling in back of skin at 20 mg/kg, sc measured after 24 hrs; format: organism-based; details: in vivo
[26] = test system: Staphylococcus aureus; test: Antibacterial activity against Staphylococcus aureus ATCC 29213 at sub-inhibitory concentration measured after 20 passages for 16 to 18 hrs; format: functional, organism-based; details: time 16-18 hrs
[27] = test system: Cell membrane; test: Induction of cell membrane permeability in methicillin-resistant Staphylococcus aureus clinical isolate MRSA-16 assessed as decrease in intact cells (Q3 region) at 8 ug/ml incubated for 2 hrs by SYTO 9 and PI staining based flow cytometry analysis (reference value: 99.07%); format: cell membranes; design: scale not given: the % may be the effect or the level left; details: dose 8.0 µg/ml
[28] = Toxicity in Kunming mouse assessed as histopathological abnormalities in heart at 4 to 8 mg/kg, sc measured after 24 hrs by H and E staining based analysis; format: organism-based; details: in vivo, dose 4-8 mg/kg
[29] = Toxicity in Kunming mouse assessed as histopathological abnormalities in skin at 10 mg/kg, sc measured after 24 hrs by H and E staining based analysis; format: organism-based; details: in vivo
[30] = Toxicity in Kunming mouse assessed as effect on spleen at 10 mg/kg, sc measured after 24 hrs by H and E staining based analysis; format: organism-based; details: in vivo
[31] = Toxicity in Kunming mouse assessed as histopathological abnormalities in liver at 10 mg/kg, sc measured after 24 hrs by H and E staining based analysis; format: organism-based; details: in vivo
[32] = Toxicity in Kunming mouse assessed as histopathological abnormalities in liver at 4 to 8 mg/kg, sc measured after 24 hrs by H and E staining based analysis; format: organism-based; details: in vivo, dose 4-8 mg/kg
[33] = Toxicity in Kunming mouse assessed as effect on heart at 10 mg/kg, sc measured after 24 hrs by H and E staining based analysis; format: organism-based; details: in vivo
[34] = test system: Staphylococcus aureus; test: Antibacterial activity against methicillin-resistant Staphylococcus aureus infected in Kunming mouse skin infection model assessed as decrease in bacterial load at 8 mg/kg,sc measured after 24 hrs; format: functional
[35] = test system: Cell membrane; test: Induction of cell membrane permeability in methicillin-resistant Staphylococcus aureus clinical isolate MRSA-16 assessed as dead cells (Q1 region) at 8 ug/ml incubated for 2 hrs by SYTO 9 and PI staining based flow cytometry analysis (reference value: 0.00%); format: cell membranes; details: dose 8.0 µg/ml

**Q.** For `CCCC[N+](C)(CCCC)CCCCCOc1ccc(C2CC(=O)c3c(OC)cc(OCCCCC[N+](C)(CCCC)CCCC)c(CC=C(C)C)c3O2)cc1.[I-].[I-]` (stereo not given), which Activity [1] is on record?
**A.** Non-Toxic

**Q.** And the Activity [2]?
**A.** 0.02%

**Q.** And the fold change (FC) [3]?
**A.** 4

**Q.** And the Activity [4]?
**A.** 99.99%

**Q.** What about the HC50 at 1 h [5] of the same compound?
**A.** > 1280 µg/mL

**Q.** And the Activity [6]?
**A.** Active

**Q.** What about the Activity [7] of the same compound?
**A.** Non-Toxic

**Q.** What about the Activity [8] of the same compound?
**A.** 0.79%

**Q.** And the MIC [9]?
**A.** 16 µg/mL

**Q.** And the Activity [10]?
**A.** Active

**Q.** And the MIC [11]?
**A.** 0.5 µg/mL

**Q.** And the Activity [12]?
**A.** 60.8%

**Q.** What about the Activity [13] of the same compound?
**A.** Active

**Q.** What about the Activity [14] of the same compound?
**A.** Active

**Q.** And the Activity [15]?
**A.** 0%

**Q.** And the Activity [16]?
**A.** Active

**Q.** And the Activity [17]?
**A.** 0.02%

**Q.** What about the Activity [18] of the same compound?
**A.** Active

**Q.** What about the Activity [19] of the same compound?
**A.** Toxic

**Q.** And the Activity [20]?
**A.** 0.44%

**Q.** And the Activity [21]?
**A.** Non-Toxic

**Q.** What about the Activity [22] of the same compound?
**A.** Active

**Q.** What about the Activity [23] of the same compound?
**A.** Non-Toxic

**Q.** And the Activity [24]?
**A.** 100%

**Q.** What about the Activity [25] of the same compound?
**A.** Toxic

**Q.** And the Activity [26]?
**A.** inactive

**Q.** And the Activity [27]?
**A.** 39.7%

**Q.** And the Activity [28]?
**A.** Non-Toxic

**Q.** And the Activity [29]?
**A.** Non-Toxic

**Q.** And the Activity [30]?
**A.** Non-Toxic

**Q.** And the Activity [31]?
**A.** Non-Toxic

**Q.** And the Activity [32]?
**A.** Non-Toxic

**Q.** And the Activity [33]?
**A.** Non-Toxic

**Q.** And the Activity [34]?
**A.** 5 log10CFU/g

**Q.** What about the Activity [35] of the same compound?
**A.** 2.94%
